In PubChem BioAssay (NCI):
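Five compound concentrations were applied to cells in 96-well plates for 48 hours; endpoints were derived by simple linear interpolation of the resulting dose-response curve. GI50 = concentration required for 50% inhibition of growth. At the TGI there is no net growth.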

Experiments:
Experiment in all cases: NCI anticancer screen, dose series, 48 h
786-0 renal = test system: 786-0 renal
A498 renal = test system: A498 renal
A549 NSCLC = test system: A549 NSCLC
ACHN renal = test system: ACHN renal
BT-549 breast = test system: BT-549 breast
CAKI-1 renal = test system: CAKI-1 renal
CCRF-CEM leukemia = test system: CCRF-CEM leukemia
COLO 205 colon = test system: COLO 205 colon
DU-145 prostate = test system: DU-145 prostate
EKVX NSCLC = test system: EKVX NSCLC
HCC-2998 colon = test system: HCC-2998 colon
HCT-116 colon = test system: HCT-116 colon
HCT-15 colon = test system: HCT-15 colon
HL-60(TB) leukemia = test system: HL-60(TB) leukemia
HOP-62 NSCLC = test system: HOP-62 NSCLC
HOP-92 NSCLC = test system: HOP-92 NSCLC
HS 578T breast = test system: HS 578T breast
HT29 colon = test system: HT29 colon
IGROV1 ovarian = test system: IGROV1 ovarian
K-562 leukemia = test system: K-562 leukemia
KM12 colon = test system: KM12 colon
LOX IMVI melanoma = test system: LOX IMVI melanoma
M14 melanoma = test system: M14 melanoma
MALME-3M melanoma = test system: MALME-3M melanoma
MCF7 breast = test system: MCF7 breast
MDA-MB-231 breast = test system: MDA-MB-231 breast
MDA-MB-435 = test system: MDA-MB-435
MOLT-4 leukemia = test system: MOLT-4 leukemia
NCI-H226 lung = test system: NCI-H226 lung
NCI-H23 lung = test system: NCI-H23 lung
NCI-H460 lung = test system: NCI-H460 lung
NCI-H522 lung = test system: NCI-H522 lung
NCI/ADR-RES ovarian = test system: NCI/ADR-RES ovarian
OVCAR-3 ovarian = test system: OVCAR-3 ovarian
OVCAR-4 ovarian = test system: OVCAR-4 ovarian
OVCAR-5 ovarian = test system: OVCAR-5 ovarian
OVCAR-8 ovarian = test system: OVCAR-8 ovarian
PC-3 prostate = test system: PC-3 prostate
RPMI-8226 leukemia = test system: RPMI-8226 leukemia
SF-268 CNS = test system: SF-268 CNS
SF-295 CNS = test system: SF-295 CNS
SF-539 CNS = test system: SF-539 CNS
SK-MEL-2 melanoma = test system: SK-MEL-2 melanoma
SK-MEL-28 melanoma = test system: SK-MEL-28 melanoma
SK-MEL-5 melanoma = test system: SK-MEL-5 melanoma
SK-OV-3 ovarian = test system: SK-OV-3 ovarian
SN12C renal = test system: SN12C renal
SNB-19 CNS = test system: SNB-19 CNS
SNB-75 CNS = test system: SNB-75 CNS
SR leukemia = test system: SR leukemia
SW-620 colon = test system: SW-620 colon
T-47D breast = test system: T-47D breast
TK-10 renal = test system: TK-10 renal
U251 CNS = test system: U251 CNS
UACC-257 melanoma = test system: UACC-257 melanoma
UACC-62 melanoma = test system: UACC-62 melanoma
UO-31 renal = test system: UO-31 renal

CC(=O)Nc1nc(C)c(-c2csc(Nc3ccccc3)n2)s1
GI50 (786-0 renal): 3.25 µM
TGI (786-0 renal): 16.1 µM
GI50 (A498 renal): 1.49 µM
TGI (A498 renal): 7.87 µM
GI50 (A549 NSCLC): 6.39 µM
TGI (A549 NSCLC): 27 µM
GI50 (ACHN renal): 4.25 µM
TGI (ACHN renal): 15.9 µM
GI50 (BT-549 breast): 2.06 µM
TGI (BT-549 breast): 8.76 µM
GI50 (CAKI-1 renal): 4.15 µM
TGI (CAKI-1 renal): 16.1 µM
GI50 (CCRF-CEM leukemia): 4.11 µM
TGI (CCRF-CEM leukemia): 82 µM
GI50 (COLO 205 colon): 7.66 µM
TGI (COLO 205 colon): 26.8 µM
GI50 (DU-145 prostate): 5.23 µM
TGI (DU-145 prostate): 17.5 µM
GI50 (EKVX NSCLC): 2.94 µM
TGI (EKVX NSCLC): 13.6 µM
GI50 (HCC-2998 colon): 8.83 µM
TGI (HCC-2998 colon): 21.4 µM
GI50 (HCT-116 colon): 3.76 µM
TGI (HCT-116 colon): 24.3 µM
GI50 (HCT-15 colon): 1.96 µM
TGI (HCT-15 colon): 13.5 µM
GI50 (HL-60(TB) leukemia): 10.5 µM
TGI (HL-60(TB) leukemia): 33.9 µM
GI50 (HOP-62 NSCLC): 6.55 µM
TGI (HOP-62 NSCLC): 21.5 µM
GI50 (HOP-92 NSCLC): 1.57 µM
TGI (HOP-92 NSCLC): 8.28 µM
GI50 (HS 578T breast): 2.35 µM
TGI (HS 578T breast): 8.06 µM
GI50 (HT29 colon): 3.89 µM
TGI (HT29 colon): 21.8 µM
GI50 (IGROV1 ovarian): 2.14 µM
TGI (IGROV1 ovarian): 7.72 µM
GI50 (K-562 leukemia): 3.68 µM
TGI (K-562 leukemia): > 100 µM
GI50 (KM12 colon): 5.6 µM
TGI (KM12 colon): 19.6 µM
GI50 (LOX IMVI melanoma): 3.97 µM
TGI (LOX IMVI melanoma): 17 µM
GI50 (M14 melanoma): 3.55 µM
TGI (M14 melanoma): 16.4 µM
GI50 (MALME-3M melanoma): 2.12 µM
TGI (MALME-3M melanoma): 11.7 µM
GI50 (MCF7 breast): 2.16 µM
TGI (MCF7 breast): 12 µM
GI50 (MDA-MB-231 breast): 6.59 µM
TGI (MDA-MB-231 breast): 21.2 µM
GI50 (MDA-MB-435): 6.07 µM
TGI (MDA-MB-435): 19.7 µM
GI50 (MOLT-4 leukemia): 3.92 µM
TGI (MOLT-4 leukemia): 28.6 µM
GI50 (NCI-H226 lung): 3.12 µM
TGI (NCI-H226 lung): 15.4 µM
GI50 (NCI-H23 lung): 4.96 µM
TGI (NCI-H23 lung): 20.7 µM
GI50 (NCI-H460 lung): 3.38 µM
TGI (NCI-H460 lung): 14.1 µM
GI50 (NCI-H522 lung): 6.46 µM
TGI (NCI-H522 lung): 22.9 µM
GI50 (NCI/ADR-RES ovarian): 5.16 µM
TGI (NCI/ADR-RES ovarian): 23.2 µM
GI50 (OVCAR-3 ovarian): 4.01 µM
TGI (OVCAR-3 ovarian): 15.7 µM
GI50 (OVCAR-4 ovarian): 6.5 µM
TGI (OVCAR-4 ovarian): 26.6 µM
GI50 (OVCAR-5 ovarian): 5.32 µM
TGI (OVCAR-5 ovarian): 20.6 µM
GI50 (OVCAR-8 ovarian): 6.81 µM
TGI (OVCAR-8 ovarian): 20.5 µM
GI50 (PC-3 prostate): 3 µM
TGI (PC-3 prostate): 23.5 µM
GI50 (RPMI-8226 leukemia): 3.57 µM
TGI (RPMI-8226 leukemia): 31.7 µM
GI50 (SF-268 CNS): 5.4 µM
TGI (SF-268 CNS): 19.3 µM
GI50 (SF-295 CNS): 2.32 µM
TGI (SF-295 CNS): 13 µM
GI50 (SF-539 CNS): 4.07 µM
TGI (SF-539 CNS): 15.5 µM
GI50 (SK-MEL-2 melanoma): 10.7 µM
TGI (SK-MEL-2 melanoma): 24.4 µM
GI50 (SK-MEL-28 melanoma): 4.13 µM
TGI (SK-MEL-28 melanoma): 17.2 µM
GI50 (SK-MEL-5 melanoma): 4.31 µM
TGI (SK-MEL-5 melanoma): 16.2 µM
GI50 (SK-OV-3 ovarian): 3.43 µM
TGI (SK-OV-3 ovarian): 42.8 µM
GI50 (SN12C renal): 3.6 µM
TGI (SN12C renal): 16.3 µM
GI50 (SNB-19 CNS): 8.09 µM
TGI (SNB-19 CNS): 20.6 µM
GI50 (SNB-75 CNS): 4.31 µM
TGI (SNB-75 CNS): 18.1 µM
GI50 (SR leukemia): 2.37 µM
TGI (SR leukemia): > 100 µM
GI50 (SW-620 colon): 9.82 µM
TGI (SW-620 colon): 23.1 µM
GI50 (T-47D breast): 1.21 µM
TGI (T-47D breast): 6.55 µM
GI50 (TK-10 renal): 8.6 µM
TGI (TK-10 renal): 24 µM
GI50 (U251 CNS): 3.39 µM
TGI (U251 CNS): 20.8 µM
GI50 (UACC-257 melanoma): 10.9 µM
TGI (UACC-257 melanoma): 23.6 µM
GI50 (UACC-62 melanoma): 2.34 µM
TGI (UACC-62 melanoma): 12.6 µM
GI50 (UO-31 renal): 2.55 µM
TGI (UO-31 renal): 12.9 µM
